2 compounds from patent USRE43712E1, “Methods for assaying for antidepressant therapy markers” (The Board of Trustees of the Uniersity of Illinois, priority 2000, dated 2012) can be followed below.

“And” between values parts separate entries of the source, which are not always exact repeats. Equal entries are not always repeated. “Also recorded” adds a separate entry of the source. Marks after values point to notes of the source that are not given here.

The subject of test [1] is Gsα. Description: Detergent extraction of Gsα from rat synaptic membrane after chronic antidepressant treatment. It is filed as in vivo. The conditions noted are these: for GsαL in the Triton X-100 extract versus control / GsαL in the Triton X-114 extract versus control: rat synaptic membrane, 21 days treatment. As to the method:
C6-2B cells (between passages 20 and 40) were grown in 175-cm^2 flasks in Dulbecco's modified Eagle medium, 4.5 g of glucose/L, 10% bovine serum, in a 10% CO2 atmosphere, at 37° C. for 3 days after splitting. […] Male Sprague-Dawley rats weighing 150-200 g were fed ad libitum and maintained in a 12-h light/dark cycle. […] 36:803-838, 1989]. […] Rat cerebral cortex membranes were prepared according to the method of Rasenick et al. [Nature, 294:560-562; 1981].
Membrane proteins were extracted sequentially from C6-2B or rat synaptic membranes as described [Yan et al., J. Neurochem., 66:1489-1495; 1996]. These membranes were stirred on ice in HEPES (15 mM, pH 7.4) containing 1% Triton X-100 for 60 min followed by centrifugation at 100,000 g for 60 min at 4° C. The supernatant was reserved (Triton X-100 extract), and the resulting pellet was resuspended in Tris (15 mM, pH 7.4) containing 1.4% Triton X-114 and 150 mM NaCl. The solution was stirred for 60 min at 4° C. and centrifuged for 30 min at 100,000 g in the cold. The supernatant was saved (Triton X-114 extract). These supernatants and remaining pellet (remainder) were subjected to sodium dodecyl sulfate (SDS)-polyacrylamide gel electophoresis (PAGE) using 10% gels. All of the extraction buffers contained 1 mM PMSF and 1 mM EGTA.
Rat cortex membrane, C6-2B cell membranes, or Triton extracts of each membrane preparation were subjected to SDS-PAGE followed by electrotransfer to polyvinylidene difluoride (PVDF) membrane. The PVDF membrane was incubated with a phosphate-buffered saline/Tween 20 Buffer (140 mM NaCl, […]. 0.1% Tween 20, pH 7.4) and 3% bovine serum albumin. The membrane was then incubated with polyclonal rabbit antisera against the various G protein subunits [RM (Gsα) or 116 (Gi1, Gi2, Gi3α)] at a 1:25,000 (RM) or 1:5,000 (116) dilution (see below for source of antibodies). […] Immunoreactivity was detected with an enhanced chemiluminescence (ECL) western blot detection system (Amersham) in accord with the manufacturer's instructions. The developed autoradiographs were analyzed by densitometry.
Rats were treated with antidepressant via intraperitoneal injection once daily for 21 days, control animals received an equal number and volume of injection of saline. Cerebral cortices from each group were removed. Rat synaptic membrane-enriched fractions were prepared (see Example 1). The ratios of the percentage of Gsα extracted by the two detergents in the treatment versus control groups were compared and are set forth in Table 3 as percentage of control (i.e., each Triton X-100 extract was compared with the untreated Triton X-100 extract, the same was comparison was undertaken for Triton X-114 extracts as well as the remainder). The values shown are means±standard error of the mean of 4-6 experiments.

For test [2], the system named is Gsα. Description: Cellular localization of Gsα in C6-2B cells, immunofluorescence laser scanning confocal microscopy. It is filed as cell-based. Conditions: for Cells displaying intense Gsα staining at the process tips (and processes): control 64%. As to the method: C6-2B cells (between passages 30 and 50) were plated onto coverslips and allowed to attach overnight in Dulbecco's modified Eagle's medium. 4.5 g/l glucose, 10% bovine serum, and 100 μg/ml penicillin and streptomycin at 37° C. in a humidified 10% CO2 atmosphere. […] Therefore, the latter treatment paradigm was used in these experiments because it was easier to maintain the cell cultures for 3 days. […] The culture media and drug were changed daily. […] After the treatment duration, the cells were incubated in drug-free media for 45 to 60 minutes before fixation.
After treatment, cells were washed once with phosphate-buffered saline (PBS, […] NaCl, 2.6 mM KCl, 5.4 mM NaαPO4 7H2O, pH 7.4) and fixed with ice-cold methanol for 10 minutes. Cells were then washed three times with PBS followed by 2 h of blocking in 5% normal goat serum/0.2% fish skin gelatin in PBS. Primary antibody was added for 1.5 h, Gsα/RM1 (PerkinElmer Life Sciences, Boston, Mass.) 1:50 and Goα (Santa Cruz Biotechnology, Santa Cruz, Calif.) 2 μg/ml, followed by three washes with PBS. Oregon Green-labeled secondary antibody (Molecular Probes, Eugene, Oreg.) was added at a concentration of 8 μg/ml for 1 h followed by three PBS washes. The coverslips were mounted onto slides with Vectashield (Vector Laboratories. Burlingame, Calif.) containing diamidino-2-phenylindole as a mounting medium. Images were acquired using a Zeiss LSM510 laser-scanning confocal microscope (Carl Zeiss Inc., Thornwood, N.Y.). A single 488-nm beam from an argon/krypton laser was used for excitation of the Oregon Green. Differential interference contrast images were also acquired. Five experiments were performed and coverslips were examined. Approximately 2100 cells from control and desipramine-treated coverslips were counted by two investigators blind to the experimental conditions over the course of the five experiments.
The cellular distribution of Gsα was quantified in confocal imaged C6-2B cells using NIH-Image software (http://rsbinfonihpov/nih-image) as describe previously [Southwell et al., Cell Tissue Res., 292:37-45, 1998; Jenkinson et al., Br. J. Pharmacol., 126:131-136, 1999]. Images of 9×1 μm optical, planar sections taken from four randomly selected control and four randomly selected desipramine-treated cells were captured and the middle five sections from each cell were quantified. Total cellular Gsα fluorescence was measured by counting the number of pixels with intensity above threshold (determined by minimum intensity above background in this case 50 pixels). The areas of intensity were numbered and divided visually into those localized to the cell body and those localized to the processes and process tips. The total from each region was divided by the total cell pixel intensity and expressed as a percentage of the total. This was done for each section of each cell and the sections were averaged per cell to give an average percentage total per cell.
In a separate investigation, seven sets of 300 cells each from control group and desipramine-treated cells from five experiments were counted to determine the primary localization (processes and process tips or cell body) of Gsα within these cells. The majority of the cells stained positively for Gsα throughout the entire cell, but there was usually an enhancement in one of these regions. […] The counts are expressed as the ratio of process and process tip localization/cell body localization.
Studies were conducted to determine whether a shift in cellular localization of Gsα occurred in C6-2B cells subjected to antidepressants.
Twenty-one hundred cells from each group (control versus desipramine-treated) over a series of five experiments were examined to quantify the extent of the antidepressant effect. […] Abnormal cells or those not displaying processes were not included in the cell count. Cells (300-450) were counted per experiment and the ratio of category A cells to category B cells for each group is shown in FIG. 8. […]

Where [3] appears, read: rat cerebral cortex synaptic membrane, 10 mg/kg i.p. once daily for 21 days, mean ± SEM of 4-6 experiments.
[4] abbreviates: 10 μM desipramine 3 days, individual cells D1-D4.

With `CNCCCN1c2ccccc2CCc2ccccc21` [Desipramine, desipramine], in test [1] (setting [3]), the “GsαL in Triton X-100 extract, % of corresponding value in control group” value is 128.2 ± 9.5^a %; the “GsαL in Triton X-114 extract, % of corresponding value in control group” value is 77.3 ± 8.8^a %; the “GsαS in Remainder, % of corresponding value in control group” value was 84.9 ± 25.7%; the “GsαS in Triton X-100 extract, % of corresponding value in control group” value was 146.4 ± 9.6^b %. Further, in test [1] (setting [3]), the “GsαS in Triton X-114 extract, % of corresponding value in control group” value is on record as 71.7 ± 6.8^a %. In test [1], the “GsαL in the Triton X-100 extract versus control” value was “significant increase” and the “GsαL in the Triton X-114 extract versus control” value was “concomitant decrease”. Also, in test [2] (10 μM desipramine 3 days), the “Decrease in Gsα localization to the processes and process tips, control versus treated cells” value is reported as “three-fold decrease”. For the same compound, the “Percentage of Gsα immunofluorescence distribution, Processes, Average” value in test [2] (10 μM desipramine 3 days, average of four cells, control 12.0 ± 5.7) worked out at 4.1 ± 4.7%. In addition, the “Percentage of Gsα immunofluorescence distribution, Processes, Average” value in test [2] (10 μM desipramine 3 days, average of four cells, control 12.0 ± 5.7, listed as desipramine) stood at 4%. Also, the “Percentage of Gsα immunofluorescence distribution, Cell Body, Average” value in test [2] (10 μM desipramine 3 days, average of four cells, control 88.0 ± 5.7) was found to be 95.9 ± 4.7%. Moreover, in test [2] (setting [4]), the “Percentage of Gsα immunofluorescence distribution, Cell Body, single cells” value is 91.4% and 92.2% and 100.0% (2×); the “Percentage of Gsα immunofluorescence distribution, Processes, single cells” value is 8.6% and 7.8% and 0.0% (2×). Besides, in test [2] (10 μM, 3 days), the “Gsα immunofluorescence in cell processes and process tips” value is “drastically reduced; also recorded: decrease in the cell processes and process tips”; the “Gsα in the cell body” value was “increase”; the “Cells displaying intense Gsα staining at the process tips (and processes)” value is recorded as 32%.
For `CNCCC(Oc1ccc(C(F)(F)F)cc1)c1ccccc1` (centres unmarked) [Fluoxetine, fluoxetine], in test [1] (setting [3]), the “GsαL in Remainder, % of corresponding value in control group” value is given as 53.8 ± 6.9^a %; the “GsαL in Triton X-100 extract, % of corresponding value in control group” value was 118.1 ± 3.4^a %; the “GsαL in Triton X-114 extract, % of corresponding value in control group” value is reported as 81.9 ± 4.5^a %; the “GsαS in Remainder, % of corresponding value in control group” value is on record as 45.2 ± 8.4^a %. In addition, in test [1] (setting [3]), the “GsαS in Triton X-100 extract, % of corresponding value in control group” value came out at 153.8 ± 39.9% and the “GsαS in Triton X-114 extract, % of corresponding value in control group” value is listed as 91.6 ± 6.3%. In addition, in test [1], the “GsαL in the Triton X-100 extract versus control” value is given as “significant increase” and the “GsαL in the Triton X-114 extract versus control” value was “concomitant decrease”. Besides, in test [2] (10 μM, 3 days), the “Gsα immunofluorescence in cell processes and process tips” value was “loss of staining in the processes and process tips; also recorded: drastic reduction”; the “Cells displaying intense Gsα staining at the process tips (and processes)” value was 45%.
